Results on 35 molecules are retold here after patent US9458110B2, “Phenylpyrazole derivatives as potent ROCK1 and ROCK2 inhibitors” (BRISTOL-MYERS SQUIBB COMPANY, priority 2013, dated 2016).

One assay addresses ROCK2 (Homo sapiens (Human), UniProt O75116). Put plainly: ROCK assay (Caliper LABCHIP peptide phosphorylation), ROCK2.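 Note: reaction stopped with EDTA, then phosphorylated and unphosphorylated peptide resolved by microfluidic electrophoresis, kinase inhibition computed at each compound concentration in dose-response series, DMSO under 2%.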 The format is biochemical. The conditions noted are these: 5 μM ATP, 1.5 μM peptide substrate.
A further assay has as its target ROCK1 (Homo sapiens (Human), UniProt Q13464). The assay is described as follows: ROCK assay (Caliper LABCHIP peptide phosphorylation), ROCK1.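 Note: Read-out is separation of phosphorylated from unphosphorylated peptide, with kinase activity inhibition computed at every concentration of a dose-response series.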 The conditions noted are these: 5 μM ATP, 1.5 μM peptide substrate. The format is biochemical.

Where only a bound is given, the exact number is not on record here.

Sequence of ROCK2 (O75116 whole entry, species assumed): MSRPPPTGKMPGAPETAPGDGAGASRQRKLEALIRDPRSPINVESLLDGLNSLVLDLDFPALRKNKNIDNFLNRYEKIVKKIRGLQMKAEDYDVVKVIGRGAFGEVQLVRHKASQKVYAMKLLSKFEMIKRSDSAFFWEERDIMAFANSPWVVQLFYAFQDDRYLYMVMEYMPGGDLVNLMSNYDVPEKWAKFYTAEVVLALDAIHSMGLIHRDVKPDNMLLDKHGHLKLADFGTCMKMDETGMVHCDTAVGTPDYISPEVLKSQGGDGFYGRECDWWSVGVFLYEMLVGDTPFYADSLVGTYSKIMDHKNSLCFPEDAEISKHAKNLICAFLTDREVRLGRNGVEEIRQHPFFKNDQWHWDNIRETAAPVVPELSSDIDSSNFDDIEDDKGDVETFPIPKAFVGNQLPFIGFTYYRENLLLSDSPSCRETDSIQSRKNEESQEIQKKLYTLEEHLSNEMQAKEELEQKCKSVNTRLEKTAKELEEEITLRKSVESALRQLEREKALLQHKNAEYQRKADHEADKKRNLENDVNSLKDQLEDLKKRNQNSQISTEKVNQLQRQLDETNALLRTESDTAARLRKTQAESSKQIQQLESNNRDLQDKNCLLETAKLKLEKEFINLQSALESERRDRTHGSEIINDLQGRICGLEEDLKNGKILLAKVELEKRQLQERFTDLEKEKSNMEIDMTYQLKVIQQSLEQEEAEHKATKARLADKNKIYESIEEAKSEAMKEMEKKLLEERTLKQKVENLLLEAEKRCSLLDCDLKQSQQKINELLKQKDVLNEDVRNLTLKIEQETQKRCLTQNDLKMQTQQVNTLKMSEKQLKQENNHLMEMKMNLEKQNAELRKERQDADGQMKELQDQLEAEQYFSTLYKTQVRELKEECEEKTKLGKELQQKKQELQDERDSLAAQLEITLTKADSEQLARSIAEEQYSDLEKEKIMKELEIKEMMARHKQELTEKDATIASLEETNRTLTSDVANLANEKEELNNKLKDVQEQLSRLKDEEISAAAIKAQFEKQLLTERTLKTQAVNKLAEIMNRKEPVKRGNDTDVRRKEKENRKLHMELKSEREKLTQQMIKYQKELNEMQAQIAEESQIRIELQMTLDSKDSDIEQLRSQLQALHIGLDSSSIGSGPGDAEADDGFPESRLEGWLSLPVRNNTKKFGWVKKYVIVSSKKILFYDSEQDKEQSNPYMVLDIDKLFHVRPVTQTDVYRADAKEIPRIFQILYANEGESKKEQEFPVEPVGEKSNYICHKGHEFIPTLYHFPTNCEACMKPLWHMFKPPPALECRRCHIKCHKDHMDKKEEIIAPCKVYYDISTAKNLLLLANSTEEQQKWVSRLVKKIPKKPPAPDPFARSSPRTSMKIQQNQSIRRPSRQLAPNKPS
Sequence of ROCK1 (Q13464 whole entry, species assumed): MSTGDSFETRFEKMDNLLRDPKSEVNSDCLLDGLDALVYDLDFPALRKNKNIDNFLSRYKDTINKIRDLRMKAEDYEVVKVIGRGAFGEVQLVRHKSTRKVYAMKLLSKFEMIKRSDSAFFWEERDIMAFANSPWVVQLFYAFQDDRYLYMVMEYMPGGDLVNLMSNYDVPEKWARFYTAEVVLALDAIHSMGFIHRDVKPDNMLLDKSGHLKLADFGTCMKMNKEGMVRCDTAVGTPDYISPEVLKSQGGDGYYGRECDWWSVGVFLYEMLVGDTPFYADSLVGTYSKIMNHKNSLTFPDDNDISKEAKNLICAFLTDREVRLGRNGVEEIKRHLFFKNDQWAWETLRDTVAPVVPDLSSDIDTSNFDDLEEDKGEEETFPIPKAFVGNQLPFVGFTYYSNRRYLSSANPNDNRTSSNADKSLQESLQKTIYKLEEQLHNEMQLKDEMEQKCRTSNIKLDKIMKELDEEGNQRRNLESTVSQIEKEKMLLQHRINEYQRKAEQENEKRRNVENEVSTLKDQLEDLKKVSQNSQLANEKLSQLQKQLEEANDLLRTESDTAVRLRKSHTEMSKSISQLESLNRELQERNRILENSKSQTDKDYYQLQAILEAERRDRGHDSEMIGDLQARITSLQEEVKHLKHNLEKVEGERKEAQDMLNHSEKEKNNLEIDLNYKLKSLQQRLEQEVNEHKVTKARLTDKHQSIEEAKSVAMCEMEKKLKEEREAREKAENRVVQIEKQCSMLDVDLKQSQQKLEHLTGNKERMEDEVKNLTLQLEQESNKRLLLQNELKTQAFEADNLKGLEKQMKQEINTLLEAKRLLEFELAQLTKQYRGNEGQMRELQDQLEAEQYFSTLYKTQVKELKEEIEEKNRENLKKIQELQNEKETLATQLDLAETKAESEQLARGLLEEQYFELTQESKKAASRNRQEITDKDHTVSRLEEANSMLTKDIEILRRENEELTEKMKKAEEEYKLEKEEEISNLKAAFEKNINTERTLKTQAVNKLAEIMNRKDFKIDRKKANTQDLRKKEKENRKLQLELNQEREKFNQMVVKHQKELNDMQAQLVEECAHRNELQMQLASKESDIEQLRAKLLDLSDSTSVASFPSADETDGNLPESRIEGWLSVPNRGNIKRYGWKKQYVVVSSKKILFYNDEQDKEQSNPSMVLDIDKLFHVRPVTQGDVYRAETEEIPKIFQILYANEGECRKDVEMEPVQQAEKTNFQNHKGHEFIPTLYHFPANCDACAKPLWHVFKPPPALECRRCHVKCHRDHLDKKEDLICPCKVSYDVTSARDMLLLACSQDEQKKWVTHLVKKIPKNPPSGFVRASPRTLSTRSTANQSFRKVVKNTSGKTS

On to `O=C(NCc1ccccc1)c1ccc(-c2cn[nH]c2)cc1CCO` [Example 211, N-benzyl-2-(2-hydroxyethyl)-4-(1H-pyrazol-4-yl) benzamide], for which the IC50 is 6510 nM at ROCK2 and 1880 nM on ROCK1.

Regarding `COc1cc(-c2cn[nH]c2)ccc1C(=O)NC(c1ccccc1F)C(C)(C)O` (stereo not shown) [Example 212, N-[1-(2-fluorophenyl)-2-hydroxy-2-methylpropyl]-2-methoxy-4-(1H-pyrazol-4-yl)benzamide], the IC50 on ROCK2 was 7.32 nM; against ROCK1, 37.3 nM.

In the case of `COc1ccc(F)c(C(C)NC(=O)c2ccc(-c3c[nH]nc3C)cc2OC)c1` (stereo not shown) [Example 213, N-[1-(2-fluoro-5-methoxyphenyl)ethyl]-2-methoxy-4-(3-methyl-1H-pyrazol-4-yl)benzamide], the IC50 came to 5.16 nM on ROCK2 and 15.6 nM at ROCK1.

For the molecule `COc1cccc(CNC(=O)c2ccc(-c3cn[nH]c3)cc2N)c1` [Example 214, 2-amino-N-[(3-methoxyphenyl)methyl]-4-(1H-pyrazol-4-yl)benzamide], the IC50 on ROCK2 was 32.3 nM; at ROCK1, 131 nM.

In the case of `COc1cc(-c2cn[nH]c2)ccc1C(=O)N[C@H](CO)[C@H](O)c1ccccc1` [Example 215, N-[(1R,2R)-1,3-dihydroxy-1-phenylpropan-2-yl]-2-methoxy-4-(1H-pyrazol-4-yl)benzamide], the values for the IC50 against ROCK2 and at ROCK1 were 23.4 nM and 64.2 nM, respectively.

As to `COc1cc(C(=O)N[C@@H](Cc2ccccc2)[C@H](O)CO)ccc1-c1cn[nH]c1` [Example 216, N-[(2S,3S)-3,4-dihydroxy-1-phenylbutan-2-yl]-3-methoxy-4-(1H-pyrazol-4-yl)benzamide], the values for the IC50 on ROCK2 and against ROCK1 were 11 nM and 51.5 nM, respectively.

As for `COc1cc(-c2cn[nH]c2)ccc1C(=O)N[C@@H](Cc1ccccc1)[C@H](O)CO` [Example 217, N-[(2S,3S)-3,4-dihydroxy-1-phenylbutan-2-yl]-2-methoxy-4-(1H-pyrazol-4-yl)benzamide], the IC50 against ROCK2 came to 12.9 nM; against ROCK1 it was 15.4 nM.

Take `COc1cc(-c2cn[nH]c2)ccc1C(=O)NC(c1ccccc1F)C(C)(C)O` (stereo not shown) [Example 218, N-[1-(2-fluorophenyl)-2-hydroxy-2-methylpropyl]-2-methoxy-4-(1H-pyrazol-4-yl)benzamide]: the IC50 on ROCK2 amounted to 6.52 nM; on ROCK1, 24.7 nM.

As to `COc1cc(-c2cn[nH]c2)ccc1C(=O)NC(c1ccccc1F)C(C)(C)O` (stereo not shown) [Example 219, N-[1-(2-fluorophenyl)-2-hydroxy-2-methylpropyl]-2-methoxy-4-(1H-pyrazol-4-yl)benzamide], the values for the IC50 on ROCK2 and against ROCK1 were 201 nM and 585 nM, respectively.

`Nc1cc(-c2cn[nH]c2)ccc1C(=O)NCCCc1ccccc1` [Example 220, 2-amino-N-(3-phenylpropyl)-4-(1H-pyrazol-4-yl)benzamide]: the IC50 on ROCK2 was 201 nM; against ROCK1, 321 nM.

On to `COc1cc(C(=O)NC(C)c2c(F)cccc2Cl)ccc1-c1cn[nH]c1` (stereo not shown) [Example 221, N-[1-(2-chloro-6-fluorophenyl)ethyl]-3-methoxy-4-(1H-pyrazol-4-yl)benzamide], for which the IC50 was 3.43 nM at ROCK2 and 16.7 nM against ROCK1.

On to `COc1cc(C(=O)NC2(c3ccccc3)CCC2)ccc1-c1cn[nH]c1` [Example 222, 3-methoxy-N-(1-phenyl-cyclobutyl)-4-(1H-pyrazol-4-yl)benzamide], for which the figures for the IC50 on ROCK2 and against ROCK1 were 26 nM and 146 nM, respectively.

As to `COc1cc(-c2cn[nH]c2)ccc1C(=O)NC(C)c1c(F)cccc1Cl` (stereo not shown) [Example 223, N-[1-(2-chloro-6-fluorophenyl)ethyl]-2-methoxy-4-(1H-pyrazol-4-yl)benzamide], the results for the 50% inhibitory concentration (IC50) against ROCK2 and against ROCK1 were 14.7 nM and 59.6 nM, respectively.

For the molecule `COc1cc(C(=O)N[C@@H](c2ccccc2)[C@H](O)CO)ccc1-c1cn[nH]c1` [Example 224, N-[(1S,2S)-2,3-dihydroxy-1-phenylpropyl]-3-methoxy-4-(1H-pyrazol-4-yl)benzamide], the values for the IC50 against ROCK2 and at ROCK1 were 1.98 nM and 8.55 nM, respectively.

With `COc1cc(-c2cn[nH]c2)ccc1C(=O)N[C@@H](c1ccccc1)[C@H](O)CO` [Example 225, N-[(1S,2S)-2,3-dihydroxy-1-phenylpropyl]-2-methoxy-4-(1H-pyrazol-4-yl)benzamide], the IC50 against ROCK2 worked out at 1.09 nM; against ROCK1, 7.59 nM.

For `COc1cc(-c2cn[nH]c2)ccc1C(=O)NC(C)c1c(F)cccc1F` (stereo not shown) [Example 226, N-[1-(2,6-difluorophenyl)ethyl]-2-methoxy-4-(1H-pyrazol-4-yl)benzamide], the IC50 at ROCK2 is 5.13 nM; against ROCK1, 26.5 nM.

Regarding `COc1cc(-c2cn[nH]c2)ccc1C(=O)NC(C)c1c(F)cccc1F` (stereo not shown) [Example 227, N-[1-(2,6-difluorophenyl)ethyl]-2-methoxy-4-(1H-pyrazol-4-yl)benzamide], the IC50 is 1200 nM on ROCK2 and greater than 2000 nM at ROCK1.

On to `COc1ccc(F)c(C(C)NC(=O)c2ccc(-c3cn[nH]c3)cc2OC)c1` (stereo not shown) [Example 228, N-[1-(2-fluoro-5-methoxyphenyl)ethyl]-2-methoxy-4-(1H-pyrazol-4-yl)benzamide], for which the results for the IC50 on ROCK2 and against ROCK1 were 3.05 nM and 12.5 nM, respectively.

`COc1ccc(F)c(C(C)NC(=O)c2ccc(-c3cn[nH]c3)cc2OC)c1` (stereo not shown) [Example 229, N-[1-(2-fluoro-5-methoxyphenyl)ethyl]-2-methoxy-4-(1H-pyrazol-4-yl)benzamide]: the figures for the IC50 at ROCK2 and against ROCK1 were 76.3 nM and 182 nM, respectively.

With `COc1cc(-c2cn[nH]c2)ccc1C(=O)NCc1cccc(S(N)(=O)=O)c1` [Example 230, 2-methoxy-4-(1H-pyrazol-4-yl)-N-[(3-sulfamoyl-phenyl)methyl] benzamide], the figures for the concentration for half-maximal inhibition (IC50) against ROCK2 and against ROCK1 were 1.86 nM and 11.2 nM, respectively.

Turning to `COc1cc(C(=O)NCc2cccc(S(N)(=O)=O)c2)ccc1-c1cn[nH]c1` [Example 231, 3-methoxy-4-(1H-pyrazol-4-yl)-N-[(3-sulfamoyl-phenyl)methyl] benzamide], the IC50 at ROCK2 was 0.99 nM; at ROCK1, 15.2 nM.

On to `COc1cc(C(=O)NC(CN)Cc2ccccc2)ccc1-c1cn[nH]c1` (stereo not shown) [Example 232, N-(1-amino-3-phenylpropan-2-yl)-3-methoxy-4-(1H-pyrazol-4-yl)benzamide], for which the figures for the IC50 on ROCK2 and against ROCK1 were 0.36 nM and 1.04 nM, respectively.

In the case of `COc1cc(-c2cn[nH]c2)ccc1C(=O)NC(CN)Cc1ccccc1` (stereo not shown) [Example 233, N-(1-amino-3-phenylpropan-2-yl)-2-methoxy-4-(1H-pyrazol-4-yl)benzamide], the figures for the IC50 on ROCK2 and against ROCK1 were 2.53 nM and 4.6 nM, respectively.

`COc1cc(C(=O)NCc2cccc(C(=O)NCC(C)(C)O)c2)ccc1-c1cn[nH]c1` [Example 234, N-({3-[(2-hydroxy-2-methylpropyl)carbamoyl]phenyl}methyl)-3-methoxy-4-(1H-pyrazol-4-yl)benzamide]: the IC50 came to 0.46 nM at ROCK2 and 3.24 nM at ROCK1.

Take `COc1cc(C(=O)NCc2cccc(C(=O)N(C)C)c2)ccc1-c1cn[nH]c1` [Example 235, N-{[3-(dimethyl-carbamoyl)phenyl]methyl}-3-methoxy-4-(1H-pyrazol-4-yl)benzamide]: the half-inhibitory concentration (IC50) on ROCK2 is 93.7 nM; on ROCK1, 499 nM.

As to `COc1cc(C(=O)NCc2cccc(C(=O)NCC3CC3)c2)ccc1-c1cn[nH]c1` [Example 236, N-({3-[(cyclopropyl-methyl)carbamoyl]phenyl}methyl)-3-methoxy-4-(1H-pyrazol-4-yl)benzamide], the figures for the IC50 at ROCK2 and at ROCK1 were 0.37 nM and 1.79 nM, respectively.

Turning to `CCNC(=O)c1cccc(CNC(=O)c2ccc(-c3cn[nH]c3)c(OC)c2)c1` [Example 237, N-{[3-(ethylcarbamoyl)phenyl]methyl}-3-methoxy-4-(1H-pyrazol-4-yl)benzamide], the IC50 is 0.4 nM at ROCK2 and 2.39 nM against ROCK1.

For the molecule `COc1cc(C(=O)NCc2cccc(C(=O)NC3CC3)c2)ccc1-c1cn[nH]c1` [Example 238, N-{[3-(cyclopropyl-carbamoyl)phenyl]methyl}-3-methoxy-4-(1H-pyrazol-4-yl)benzamide], the IC50 on ROCK2 came to 0.32 nM; on ROCK1, 2.44 nM.

As to `Cc1cc(C(=O)NCc2cccc(C(=O)O)c2)ccc1-c1cn[nH]c1` [Example 239, 3-({[3-methyl-4-(1H-pyrazol-4-yl)phenyl] formamido}methyl) benzoic acid], the IC50 is 11.5 nM on ROCK2 and 61.4 nM against ROCK1.

Turning to `CCNC(=O)c1cccc(CNC(=O)c2ccc(-c3cn[nH]c3)c(C)c2)c1` [Example 240, N-{[3-(ethylcarbamoyl)phenyl]methyl}-3-methyl-4-(1H-pyrazol-4-yl)benzamide], the concentration for half-maximal inhibition (IC50) against ROCK2 was 2.61 nM; against ROCK1 it was 11.8 nM.

Consider `CCN1CCC[C@H]1CNC(=O)c1cccc(CNC(=O)c2ccc(-c3cn[nH]c3)c(OC)c2)c1` [Example 241, N-{[3-({[(2S)-1-ethylpyrrolidin-2-yl]methyl}carbamoyl)phenyl]methyl}-3-methoxy-4-(1H-pyrazol-4-yl)benzamide], for which the IC50 on ROCK2 worked out at 0.85 nM; at ROCK1 it was 1.54 nM.

`COc1cc(C(=O)NCc2ccc(F)c(C(=O)O)c2)ccc1-c1cn[nH]c1` [Example 242, 2-fluoro-5-({[3-methoxy-4-(1H-pyrazol-4-yl)phenyl] formamido}methyl) benzoic acid]: the IC50 against ROCK2 is 4.41 nM; against ROCK1 it was 39.2 nM.

Consider `Cc1cc(C(=O)NCc2cccc(C(=O)NCC3CC3)c2)ccc1-c1cn[nH]c1` [Example 243, N-({3-[(cyclopropyl-methyl)carbamoyl]phenyl}methyl)-3-methyl-4-(1H-pyrazol-4-yl)benzamide], for which the IC50 at ROCK2 was determined as 0.5 nM; on ROCK1, 3.38 nM.

In the case of `Cc1cc(C(=O)NCc2cccc(C(=O)NC3CC3)c2)ccc1-c1cn[nH]c1` [Example 244, N-{[3-(cyclopropyl-carbamoyl)phenyl]methyl}-3-methyl-4-(1H-pyrazol-4-yl)benzamide], the IC50 against ROCK2 came out at 0.86 nM; at ROCK1 it was 4.22 nM.

For the molecule `Cc1cc(C(=O)NCc2cccc(C(=O)NC[C@H]3CCCN3)c2)ccc1-c1cn[nH]c1` [Example 245, 3-methyl-4-(1H-pyrazol-4-yl)-N-[(3-{[(2R)-pyrrolidin-2-ylmethyl]carbamoyl}phenyl)methyl] benzamide], the figures for the IC50 at ROCK2 and against ROCK1 were 0.71 nM and 2.46 nM, respectively.
